From PMC8307384, “Characterization of Two α-L-Arabinofuranosidases from Acetivibrio mesophilus and Their Synergistic Effect in Degradation of Arabinose-Containing Substrates” (Microorganisms, 2021)

Molecular target: T1, AmAraf51 (Acetivibrio mesophilus, UniProt A0A4Q0I2R2)
T1 construct: gene EFD62_11990; complete ORF, 509 residues, no signal peptide; N-terminal His6 tag (not reported cut); E. coli ArcticExpress (DE3), pET24c
Assay: TLC of hydrolysis products
Type: biochemical
Settings: 85 nM enzyme, 0.5 g/L substrate, pH 6.0, 60 °C

T1 sequence (A0A4Q0I2R2 entry or part of it): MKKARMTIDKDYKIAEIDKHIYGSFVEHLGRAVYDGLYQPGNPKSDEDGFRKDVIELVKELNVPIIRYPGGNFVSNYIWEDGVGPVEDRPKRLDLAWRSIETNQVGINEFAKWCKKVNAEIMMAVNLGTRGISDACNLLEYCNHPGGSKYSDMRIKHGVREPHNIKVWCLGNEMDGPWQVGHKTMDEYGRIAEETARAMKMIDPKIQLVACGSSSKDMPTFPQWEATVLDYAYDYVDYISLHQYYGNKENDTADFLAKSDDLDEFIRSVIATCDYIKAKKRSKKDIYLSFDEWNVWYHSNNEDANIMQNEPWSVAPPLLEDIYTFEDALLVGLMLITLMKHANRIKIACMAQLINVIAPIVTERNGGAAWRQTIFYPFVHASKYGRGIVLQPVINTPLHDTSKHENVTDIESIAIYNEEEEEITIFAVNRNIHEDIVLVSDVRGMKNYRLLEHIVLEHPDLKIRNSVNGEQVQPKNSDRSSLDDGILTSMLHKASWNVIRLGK

OC[C@@H]1O[C@@H](OC[C@@H]2O[C@@H](OC[C@@H]3OC(O)[C@H](O)[C@H]3O)[C@H](O)[C@H]2O)[C@H](O)[C@H]1O (stereo partly shown) [A3, arabinotriose]
TLC of hydrolysis products: incubation of AmAraf51 with three different AOS led to their almost complete hydrolysis to arabinose
